Results reported in US6645918B1, “N-([1,2,4]triazoloazinyl)thiophenesulfonamide compounds and their use as herbicides” (Dow AgroSciences LLC, priority 2000, dated 2003).

Key:
Assay type in all cases: in vivo
[1] = system: velvetleaf (Abutilion theophrasti); assay: Postemergence herbicidal activity, velvetleaf; conditions: foliar spray, visual after 2 weeks, 0 no injury, 100 complete kill
Description: (§1) Seeds of the desired test plant species were planted in Grace-Sierra MetroMix® 306 planting mixture, which typically has a pH of 6.0 to 6.8 and an organic matter content of about 30 percent, in plastic pots with a surface area of 64 square centimeters. When required to ensure good germination and healthy plants, a fungicide treatment and/or other chemical or physical treatment was applied. The plants were grown for 7-21 days in a greenhouse with an approximately 15 hr photoperiod which was maintained at about 23-29° C. during the day and 22-28° C. during the night. Nutrients and water were added on a regular basis and supplemental lighting was provided with overhead metal halide 1000 Watt lamps as necessary. The plants were employed for testing when they reached the first or second true leaf stage. A weighed amount of each test compound, determined by the highest rate to be tested, was placed in a 20 mL glass vial and was dissolved in 4 mL of a 97:3 v/v (volume/volume) mixture of acetone and dimethyl sulfoxide to obtain concentrated stock solutions. […] The concentrated stock solutions obtained were diluted with an aqueous mixture containing acetone, water, iso-propyl alcohol, dimethyl sulfoxide, Atplus 411F crop oil concentrate, and Triton X-155 surfactant (methylenebisdiamyl phenoxy polyethoxy ethanol) in a 48.5:39:10:1.5:1.0:0.02 v/v ratio to obtain spray solutions of known concentration. The solutions containing the highest concentration to be tested were prepared by diluting 2 mL aliquots of the stock solution with 13 mL of the mixture and lower concentrations were prepared by dilution of appropriate smaller portions of the stock solution. Approximately 1.5 mL aliquots of each solution of known concentration were sprayed evenly onto each of the test plant pots using a DeVilbiss atomizer driven by compressed air pressure of 2 to 4 psi (140 to 280 kilopascals) to obtain thorough coverage of each plant. Control plants were sprayed in the same manner with the aqueous mixture. In this test an application rate of 1 ppm results in the application of approximately 1 g/ha. The treated plants and control plants were placed in a greenhouse as described above and watered by sub-irrigation to prevent wash-off of the test compounds. After 2 weeks the condition of the test plants as compared with that of the untreated plants was determined visually and scored on a scale of 0 to 100 percent where 0 corresponds to no injury and 100 corresponds to complete kill.

[2] = system: giant foxtail (Setaria faberi); assay: Postemergence herbicidal activity, giant foxtail; conditions: foliar spray, visual after 2 weeks, 0 no injury, 100 complete kill
Description: as §1

[3] = system: cocklebur (Xanthium strumarium); assay: Postemergence herbicidal activity, cocklebur; conditions: foliar spray, visual after 2 weeks, 0 no injury, 100 complete kill
Description: as §1

[4] = system: cocklebur (Xanthium strumarium); assay: Preemergence herbicidal activity, cocklebur; conditions: soil spray, visual after 3 weeks, 0 no injury, 100 complete kill or no germination
Description: (§2) The soil matrix was contained in plastic pots with a surface area of 161 square centimeters. When required to ensure good germination and healthy plants, a fungicide treatment and/or other chemical or physical treatment was applied. A weighed amount, determined by the highest rate to be tested, of each test compound was placed in a 20 mL glass vial and was dissolved in 8 mL of a 97:3 v/v (volume/volume) mixture of acetone and dimethyl sulfoxide to obtain concentrated stock solutions. […] The stock solutions obtained were diluted with a 99.9:0.1 mixture of water and Tween® 155 surfactant (ethoxylated sorbitan fatty acid ester) to obtain application solutions of known concentration. The solutions containing the highest concentration to be tested were prepared by diluting 4 mL aliquots of the stock solution with 8.5 mL of the mixture and lower concentrations were prepared by dilution of appropriate smaller portions of the stock solution. A 2.5 mL aliquot of each solution of known concentration was sprayed evenly onto the soil of each seeded pot using a Cornwall 5.0 mL glass syringe fitted with a TeeJet TN-3 hollow cone nozzle to obtain thorough coverage of the soil in each pot. Control pots were sprayed in the same manner with the aqueous mixture. A highest application rate of 4.48 kg/ha is achieved when 50 mg of test compound is employed. The treated pots and control pots were placed in a greenhouse with an approximately 15 hr photoperiod which was maintained at about 23-29° C. during the day and 22-28° C. during the night. Nutrients and water were added on a regular basis and supplemental lighting was provided with overhead metal halide 1000 Watt lamps as necessary. The water was added by top-irrigation. After 3 weeks the condition of the test plants that germinated and grew as compared with that of the untreated plants that germinated and grew was determined visually and scored on a scale of 0 to 100 percent where 0 corresponds to no injury and 100 corresponds to complete kill or no germination.

[5] = system: crabgrass (Digitaria sanguinalis); assay: Preemergence herbicidal activity, crabgrass; conditions: soil spray, visual after 3 weeks, 0 no injury, 100 complete kill or no germination
Description: as §2

[6] = system: morningglory (Ipomoea hederacea); assay: Postemergence herbicidal activity, morningglory; conditions: foliar spray, visual after 2 weeks, 0 no injury, 100 complete kill
Description: as §1

wild oats (Avena fatua) [7] = assay: Postemergence herbicidal activity, wild oats; conditions: foliar spray, visual after 2 weeks, 0 no injury, 100 complete kill
Description: as §1

[8] = system: pigweed (Amaranthus retroflexus); assay: Postemergence herbicidal activity, pigweed; conditions: foliar spray, visual after 2 weeks, 0 no injury, 100 complete kill
Description: as §1

[9] = system: wild buckwheat (Polygonum convolvulus); assay: Postemergence herbicidal activity, wild buckwheat; conditions: foliar spray, visual after 2 weeks, 0 no injury, 100 complete kill
Description: as §1

[10] = system: barnyardgrass (Echinochloa crus-galli); assay: Preemergence herbicidal activity, barnyardgrass; conditions: soil spray, visual after 3 weeks, 0 no injury, 100 complete kill or no germination
Description: as §2

[11] = system: velvetleaf (Abutilion theophrasti); assay: Preemergence herbicidal activity, velvetleaf; conditions: soil spray, visual after 3 weeks, 0 no injury, 100 complete kill or no germination
Description: as §2

[12] = system: pigweed (Amaranthus retroflexus); assay: Preemergence herbicidal activity, pigweed; conditions: soil spray, visual after 3 weeks, 0 no injury, 100 complete kill or no germination
Description: as §2

[13] = system: Rox orange sorghum (Sorghum bicolor); assay: Postemergence herbicidal activity, Rox orange sorghum; conditions: foliar spray, visual after 2 weeks, 0 no injury, 100 complete kill
Description: as §1

[14] = system: morningglory (Ipomoea hederacea); assay: Preemergence herbicidal activity, morningglory; conditions: soil spray, visual after 3 weeks, 0 no injury, 100 complete kill or no germination
Description: as §2

[15] = system: chickweed (Stellaria media); assay: Postemergence herbicidal activity, chickweed; conditions: foliar spray, visual after 2 weeks, 0 no injury, 100 complete kill
Description: as §1

[16] = system: lambsquarters (Chenopodium album); assay: Preemergence herbicidal activity, lambsquarters; conditions: soil spray, visual after 3 weeks, 0 no injury, 100 complete kill or no germination
Description: as §2

[17] = system: blackgrass (Alopecurus myosuroides); assay: Preemergence herbicidal activity, blackgrass; conditions: soil spray, visual after 3 weeks, 0 no injury, 100 complete kill or no germination
Description: as §2

[18] = system: wild poinsettia (Euphorbia heterophylla); assay: Preemergence herbicidal activity, wild poinsettia; conditions: soil spray, visual after 3 weeks, 0 no injury, 100 complete kill or no germination
Description: as §2

[19] = system: Rox orange sorghum (Sorghum bicolor); assay: Preemergence herbicidal activity, Rox orange sorghum; conditions: soil spray, visual after 3 weeks, 0 no injury, 100 complete kill or no germination
Description: as §2

viola (Viola tricolor) = assay: Postemergence herbicidal activity, viola; conditions: foliar spray, visual after 2 weeks, 0 no injury, 100 complete kill
Description: as §1

[20] = system: giant foxtail (Setaria faberi); assay: Preemergence herbicidal activity, giant foxtail; conditions: soil spray, visual after 3 weeks, 0 no injury, 100 complete kill or no germination
Description: as §2

[21] = system: lambsquarters (Chenopodium album); assay: Postemergence herbicidal activity, lambsquarters; conditions: foliar spray, visual after 2 weeks, 0 no injury, 100 complete kill
Description: as §1

[22] = system: blackgrass (Alopecurus myosuroides); assay: Postemergence herbicidal activity, blackgrass; conditions: foliar spray, visual after 2 weeks, 0 no injury, 100 complete kill
Description: as §1

wild oats (Avena fatua) [23] = assay: Preemergence herbicidal activity, wild oats; conditions: soil spray, visual after 3 weeks, 0 no injury, 100 complete kill or no germination
Description: as §2

| Structure (SMILES) | ABUTH postemergence injury score 0-100 ([1]; 15.6 ppm) | SETFA postemergence injury score 0-100 ([2]; 15.6 ppm) | XANST postemergence injury score 0-100 ([3]; 15.6 ppm) | IPOHE postemergence injury score 0-100 ([6]; 15.6 ppm) | AVEFA postemergence injury score 0-100 (wild oats (Avena fatua) [7]; 15.6 ppm) | AMARE postemergence injury score 0-100 ([8]; 15.6 ppm) | POLCO postemergence injury score 0-100 ([9]; 15.6 ppm) | SORBI postemergence injury score 0-100 ([13]; 15.6 ppm) | STEME postemergence injury score 0-100 ([15]; 15.6 ppm) | VIOTR postemergence injury score 0-100 (viola (Viola tricolor); 15.6 ppm) | CHEAL postemergence injury score 0-100 ([21]; 15.6 ppm) | ALOMY postemergence injury score 0-100 ([22]; 15.6 ppm) | XANST preemergence injury score 0-100 ([4]; 35 g/Ha) | DIGSA preemergence injury score 0-100 ([5]; 35 g/Ha) | ECHCG preemergence injury score 0-100 ([10]; 35 g/Ha) | ABUTH preemergence injury score 0-100 ([11]; 35 g/Ha) | AMARE preemergence injury score 0-100 ([12]; 35 g/Ha) | IPOHE preemergence injury score 0-100 ([14]; 35 g/Ha) | CHEAL preemergence injury score 0-100 ([16]; 35 g/Ha) | ALOMY preemergence injury score 0-100 ([17]; 35 g/Ha) | further results |
| --- | --- | --- | --- | --- | --- | --- | --- | --- | --- | --- | --- | --- | --- | --- | --- | --- | --- | --- | --- | --- | --- |
| COc1cc(OC)n2nc(NS(=O)(=O)c3cscc3OC)nc2n1 [Compound 15] | 70% | 100% | 90% | 70% | 95% | 90% | 80% | 100% | 90% | 70% | 90% | 80% |  |  |  |  |  |  |  |  | XANST preemergence injury score 0-100 ([4]; 8.8 g/Ha): 60%; DIGSA preemergence injury score 0-100 ([5]; 8.8 g/Ha): 100%; ECHCG preemergence injury score 0-100 ([10]; 8.8 g/Ha): 80%; ABUTH preemergence injury score 0-100 ([11]; 8.8 g/Ha): 90%; AMARE preemergence injury score 0-100 ([12]; 8.8 g/Ha): 85%; IPOHE preemergence injury score 0-100 ([14]; 8.8 g/Ha): 70%; CHEAL preemergence injury score 0-100 ([16]; 8.8 g/Ha): 98%; ALOMY preemergence injury score 0-100 ([17]; 8.8 g/Ha): 100%; EPHHL preemergence injury score 0-100 ([18]; 8.8 g/Ha): 90%; SORBI preemergence injury score 0-100 ([19]; 8.8 g/Ha): 100%; SETFA preemergence injury score 0-100 ([20]; 8.8 g/Ha): 100%; AVEFA preemergence injury score 0-100 (wild oats (Avena fatua) [23]; 8.8 g/Ha): 100% |
| COc1cscc1S(=O)(=O)Nc1nc2c(OC)ccc(OC)n2n1 [Compound 16] | 80% | 90% | 95% | 60% | 80% | 95% | 90% | 90% | 90% | 70% | 95% | 85% | 40% | 30% | 0% | 40% | 60% | 0% | 80% | 100% | EPHHL preemergence injury score 0-100 ([18]; 35 g/Ha): 0%; SORBI preemergence injury score 0-100 ([19]; 35 g/Ha): 0%; SETFA preemergence injury score 0-100 ([20]; 35 g/Ha): 0%; AVEFA preemergence injury score 0-100 (wild oats (Avena fatua) [23]; 35 g/Ha): 0% |
| COc1cscc1S(=O)(=O)Nc1nc2c(C)cnc(OC)n2n1 [Compound 17] |  |  |  |  |  |  |  |  |  |  |  |  | 70% | 30% | 30% | 30% | 70% | 0% | 100% | 100% | ABUTH postemergence injury score 0-100 ([1]; 31.3 ppm): 85%; SETFA postemergence injury score 0-100 ([2]; 31.3 ppm): 90%; XANST postemergence injury score 0-100 ([3]; 31.3 ppm): 95%; IPOHE postemergence injury score 0-100 ([6]; 31.3 ppm): 70%; AVEFA postemergence injury score 0-100 (wild oats (Avena fatua) [7]; 31.3 ppm): 85%; AMARE postemergence injury score 0-100 ([8]; 31.3 ppm): 95%; POLCO postemergence injury score 0-100 ([9]; 31.3 ppm): 60%; SORBI postemergence injury score 0-100 ([13]; 31.3 ppm): 90%; STEME postemergence injury score 0-100 ([15]; 31.3 ppm): 90%; EPHHL preemergence injury score 0-100 ([18]; 35 g/Ha): 60%; SORBI preemergence injury score 0-100 ([19]; 35 g/Ha): 60%; VIOTR postemergence injury score 0-100 (viola (Viola tricolor); 31.3 ppm): 70%; SETFA preemergence injury score 0-100 ([20]; 35 g/Ha): 60%; CHEAL postemergence injury score 0-100 ([21]; 31.3 ppm): 100%; ALOMY postemergence injury score 0-100 ([22]; 31.3 ppm): 70%; AVEFA preemergence injury score 0-100 (wild oats (Avena fatua) [23]; 35 g/Ha): 30% |
